Consider 2 compounds from patent US20250288587A1, “Methods of Treating Fibrosis” (Athira Pharma, Inc., priority 2022, published 2025).

Where a SMILES comes first, the peptide text is derived from it. [ ]: non-standard residue; d: D form. The star is where a group is joined. Hexanoyl = CCCCCC(=O)*; Ahx = NCCCCCC(=O)O

Experiment [1] has as its system THP-1-differentiated macrophages. Kind of experiment: Pro-inflammatory cytokine expression in LPS-challenged THP-1-differentiated macrophages. It counts as cell-based, human. As to conditions: for IL-1β, significant reduction in culture supernatant vs LPS treatment / IL-6, significant reduction in culture supernatant vs LPS treatment / TNF-α, significant reduction in culture supernatant vs LPS treatment: 20 min pre-treatment, 24 hrs LPS. Also noted: key to IL-6, significant reduction in culture supernatant vs LPS treatment / TNF-α, significant reduction in culture supernatant vs LPS treatment / IL-1β, significant reduction in culture supernatant vs LPS treatment: “NS” indicates a non-significant reduction in the indicated cytokine; “+” indicates a p value <0.05 in Tukey post test; “++” indicates a p value <0.01 in Tukey post test. How it is done: Differentiation with PMA causes THP-1 monocyte cells to acquire functional and morphological resemblance to macrophages. LPS interacts with THP-1 differentiated macrophage through the toll-like receptor 4, triggering the inflammatory response and stimulating pro-inflammatory cytokine release and eventually leading to cellular death. Compounds were tested to determine their anti-inflammatory effects on LPS-challenged macrophage cultures. THP-1-differentiated macrophages were treated with test compounds for 20 minutes, followed by 24 hrs of LPS challenge. Culture supernatants were then collected to analyzed for the presence of pro-inflammatory cytokines: […], interleukin 6 (IL-6) and tumor necrosis factor α (TNF-α).
Cytokine quantification in cell culture supernatants was accomplished by HTRF kits to assess levels of IL-1β (Human IL-1β kit, #62HIL1BPEG, Cisbio) and IL-6 (Human IL-6 kit, 62HIL06PET, Cisbio), and by ELISA to determine the levels of TNF-α (Human TNF-α ELISA kit, KHC3011, ThermoFisher).
Data analysis was performed via 1-way ANOVA with Tukey post-test compared to LPS treatment cultures using Prism statistical software (GraphPad). Tabular data indicates significance of reduction in culture supernatants for the indicated analyte at the indicated doses.

Experiment [2] deals with MRC-5 cells. Kind of experiment: TGFβ-stimulated αSMA expression in MRC-5 cells (HTRF). It is filed as cell-based. Set-up: key to Significant reduction in αSMA via HTRF compared to TGFβ alone: NS = no statistically significant change in aSMA expression; + = p < 0.05; ++ = p < 0.01; +++ = p < 0.005; ++++ = p < 0.001. As to conditions: for Significant reduction in αSMA via HTRF compared to TGFβ alone: TGFβ 1 ng/ml, HGF 0.01 ng/ml, 48 h. How it is done:
In this study, pulmonary-derived immortalized fibroblasts, MRC-5 cells, were cultured as a model of the early transition to fibrosis, and αSMA expression was measured using an immunodetection system driven by homogenous time-resolved fluorescence (HTRF) technology. This detection system produces a fluorescent signal in the presence of αSMA in cell lysates. Cells were grown to confluence in 96-well culture plates in complete media, and then transitioned to serum-free media for 2 hours. Next TGFβ (final 1 ng/ml in serum-free media) was added to the cells to stimulate the fibrotic transition. After 2 hours, media containing either HGF or HGF combined with one of the compounds was added to the cells. After incubation for 48 hours, cells were lysed and processed for αSMA HTRF to detect the levels of αSMA expression and compared to TGFβ-stimulated cultures. Statistical analysis consisted of 1-way ANOVA with a Dunnett's multiple comparison's post-test.
A general note: TR-FRET usually uses a lanthanide donor and a delayed reading to cut background.

Experiment [3] relates to BALB/c mice, CCl4 mouse model of liver fibrosis. Briefly: CCl4-induced liver fibrosis, plasma AST. It is filed as in vivo. How it is done:
Liver fibrosis in BALB/c mice was induced by biweekly intraperitoneal injections of carbon tetrachloride (CCl4) from study day 0 to 43. Mice were treated with vehicle, Compound 1a, or positive control, SB535334, beginning at study day 21. At termination (study day 43), plasma was tested for liver function via levels of aspartate aminotransferase (AST).
AST can be used as a marker of liver damage, because increased levels are released in the blood stream in chronic liver disease.

Turning to `CCCCCC(=O)N[C@@H](Cc1ccc(O)cc1)C(=O)N[C@H](C(=O)NCCCCCC(N)=O)[C@@H](C)CC` [Compound A19-AM, Dihexa] (Hexanoyl-Tyr-Ile-[Ahx]-NH2), in experiment [1] (0.1 nM), the “IL-1β, significant reduction in culture supernatant vs LPS treatment” value (“IL-1β, significant reduction” below) is given as “NS”; the “IL-6, significant reduction in culture supernatant vs LPS treatment” value (“IL-6, significant reduction” below) is reported as “NS”; the “TNF-α, significant reduction in culture supernatant vs LPS treatment” value (shortened to “TNF-α, significant reduction”) is “NS”. In addition, in experiment [1] (10 nM), the “IL-1β, significant reduction” value is listed as “++ (“++” indicates a p value <0.01 in Tukey post test)”; the “IL-6, significant reduction” value was “+ (“+” indicates a p value <0.05 in Tukey post test)”; the “TNF-α, significant reduction” value is “+ (“+” indicates a p value <0.05 in Tukey post test)”. In experiment [1] (1000 nM), the “IL-1β, significant reduction” value is listed as “+ (“+” indicates a p value <0.05 in Tukey post test)”; the “IL-6, significant reduction” value is reported as “++ (“++” indicates a p value <0.01 in Tukey post test)”; the “TNF-α, significant reduction” value was “+ (“+” indicates a p value <0.05 in Tukey post test)”. In experiment [1] (at at least one tested dose), the “expression of IL-1β and TNF-α” value is “significantly reduced”; the “expression of IL-6” value is reported as “significantly reduced”. The αSMA expression result in experiment [2] (1 uM, combined with 0.01 ng/ml HGF) is “significantly reduced αSMA”. Further, in experiment [2] (test compound 1 nM), the “Significant reduction in αSMA via HTRF compared to TGFβ alone” value was “NS”. Further, in experiment [2] (test compound 1 μM), the “Significant reduction in αSMA via HTRF compared to TGFβ alone” value is given as “++++ (++++ = p < 0.001)”.
As to `Cc1cccc(-c2[nH]c(C(C)(C)C)nc2-c2ccc3nccnc3c2)n1` [SB525334, reference compound], in experiment [3] (Dose 30, from study day 21, termination day 43), the “AST in plasma, improvement compared to disease control” value is given as “− (− = change of <5% compared to disease control)”. The “AST levels in plasma compared to CCl4-treated mice receiving vehicle” value in experiment [3] (positive control) is on record as “significant increases”.
